Data published in patent publication US11672757B2, “Hot melt extrusion for pharmaceutical vaginal film products” (UNIVERSITY OF PITTSBURGH-OF THE COMMONWEALTH SYSTEM OF …, priority 2017, dated 2023).
≈ marks a conversion by molar mass, not a printed value.

Experiments:
[1] = test system: G. vaginalis (ATCC 14018); assay: Zone of inhibition on HBT plate lawn; assay type: cell-based, Gardnella vaginalis; conditions: 37° C., 6% CO2, 48 hours
Experimental: To test the bioactivity of metronidazole film, Gardnella vaginalis (G. vaginilis) (ATCC 14018) was plated on HBT plates to form a lawn. A metronidazole film was placed in the middle of the plated bacteria and plates were incubated at 37° C. with 6% CO2 for 48 hours. Post incubation, the plates were visually inspected for the formation of a zone of inhibition. Placebo films and metronidazole drug substance were prepared and tested in the same manner as the controls. […] This confirms that G. vaginilis growth is inhibited by the presence of both the metronidazole drug substance alone and within the film. On the other hand, G. vaginilis was not affected by the placebo film.
To test the bioactivity of bacterial/metronidazole combination film, G. vaginalis (ATCC 14018) was plated on Human Blood Tween Bilayer (HBT) plates to form a lawn. Bacteria/metronidazole film was placed in the middle of the HBT plated bacteria and plates were incubated at 37° C. with 6% CO2 for 48 hours. Post incubation, the plates were visually inspected for the formation of a zone of inhibition and L. jensenii growth. Placebo films, metronidazole drug substance, and bacterial loaded film were prepared and tested in the same manner as the controls. […] Therefore, the desired in vivo antimicrobial and probiotic effects of the combination film were confirmed in vitro. […]

rabbit model = conditions: in vivo rabbit model; cited from earlier work
human cervical explants = conditions: cited from earlier work
TZM-bl cells = assay type: cell-based
Experimental: A DPV film was dissolved in 2 mL of saline and ten-fold serial dilutions were made. The DPV drug substance stock solution (1000 nM) was mixed in DMSO and serially diluted in DMEM with 10% BSA supplemented with antibiotics, which is the medium used in the TZM-bl assay. All dilution samples were added in triplicates to the TZM-bl cells that were plated. […] For cellular toxicity evaluation, similar set up of the experiment was conducted. Except that for toxicity study, the cells were not exposed to the virus. In this study the cells were exposed to CellTiter-Glo, and luminescence signal was measured. Cellular viability was determined based on the deviation from the cell-only control (Nixon, B., et al., Griffithsin protects mice from genital herpes by preventing cell-to-cell spread. J. Virol., 2013, 87(11):6257-6269).

[2] = test system: wild type and resistant mutant HIV; conditions: cited from earlier work
[3] = pH 9; cited from earlier work

Cc1ncc([N+](=O)[O-])n1CCO [Metronidazole]
zone of inhibition [1]: ~1.5 cm

Griffithsin [GRFT]
safety (rabbit model): safe
safety (human cervical explants): safe

Cc1cc(C)c(Nc2ccnc(Nc3ccc(C#N)cc3)n2)c(C)c1 [DPV, Dapivirine]
cellular toxicity (TZM-bl cells): no cellular toxicity
EC50 [2]: 0.3 ng/mL (≈ 0.911 nM)
EC90 [2]: 0.9 ng/mL (≈ 2.73 nM)
logP [3]: 5.27
